Reference: patent publication US8846710B2, “Method of preferentially inducing the biosynthesis of interferon” (3M Innovative Properties Company, priority 2005, dated 2014)

What was measured:
[1] = system: interferon (α) (IFN-α); assay: Cytokine induction in human cells: IFN-α secreted by PBMC into culture media (ELISA); format: cell-based; design: key to Maximal Response (pg/mL) IFN: If any negative values result from background subtraction, the reading is reported as “*”, and is noted as not reliably detectable; conditions: for Maximal Response (pg/mL) IFN: maximal response in dose response curve, median; for Maximal Response IFN / Minimum Effective Concentration IFN / minimal effective concentration: human PBMC; for Maximal Response IFN / Minimum Effective Concentration IFN: median where tested in more than one experiment; for minimal effective concentration: lowest tested concentration inducing IFN-α over usually 20 pg/mL, median where more than one experiment, read-out: Minimum Effective Concentration (μM) IFN
How it was run: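 Human donor PBMC, 2×10^6 cells/mL final in RPMI complete, treated 18–24 h at 37 °C, 5% CO2 with 3-fold dilutions (usually 30-0.014 μM), DMSO ≤1%. Supernatant IFN-α by multi-subtype sandwich ELISA, background-subtracted and reference-adjusted; minimum effective concentration = lowest concentration exceeding usually 20 pg/mL.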

[2] = system: tumor necrosis factor (α) (TNF-α); assay: Cytokine induction in human cells: TNF-α secreted by PBMC into culture media (ORIGEN M-Series immunoassay); format: cell-based; design: key to Maximal Response (pg/mL) TNF / Maximal Response TNF: If any negative values result from background subtraction, the reading is reported as “*”, and is noted as not reliably detectable; conditions: for Maximal Response (pg/mL) TNF: maximal response in dose response curve; for Maximal Response (pg/mL) TNF / Maximal Response TNF: median; for Maximal Response TNF / Minimum Effective Concentration TNF / minimal effective concentration: human PBMC; for Minimum Effective Concentration TNF: median where tested in more than one experiment; for minimal effective concentration: lowest tested concentration inducing TNF-α over usually 40 pg/mL, median where more than one experiment, read-out: Minimum Effective Concentration (μM) TNF
How it was run: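 Human donor PBMC (final 2×10^6 cells/mL) were incubated 18 to 24 hours at 37° C with compound, usually 30-0.014 μM in 3-fold steps, ≤1% DMSO. Supernatant TNF-α was measured by ORIGEN immunoassay, background-subtracted and reference-adjusted; minimum effective concentration was the lowest concentration exceeding a fixed cytokine threshold.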

[3] = Table 7, background-subtracted, reference-adjusted
[4] = Table 11, * = TNF below experimental background of 40 pg/mL
[5] = Table 10, * = below experimental background level
[6] = Table 12, * = below the experimental background of 40 pg/mL
[7] = Table 8, background-subtracted, reference-adjusted

## CCc1nc2c(N)nc3ccccc3c2n1CC(C)(C)NS(C)(=O)=O [Analog 2, N-[2-(4-Amino-2-ethyl-1H-imidazo[4,5-c]quinolin-1-yl)-1,1-dimethylethyl]methanesulfonamide]
[1]; [3]
  Maximal Response (pg/mL) IFN: 831 pg/mL
[1]; Table 11
  Maximal Response IFN: 1096 pg/mL
[2]; [3]
  Maximal Response (pg/mL) TNF: 3670 pg/mL
[2]; [4]
  Maximal Response TNF: 9675 pg/mL

## Cc1nc2c(N)nc3ccccc3c2n1CCCNC(=O)N1CCOCC1 [Analog 87]
[1]; Table 11
  Maximal Response IFN: 4843 pg/mL
  Minimum Effective Concentration IFN: 0.37 µM
[2]; Table 11
  Minimum Effective Concentration TNF: 30 µM
[2]; [4]
  Maximal Response TNF: 463 pg/mL

## CC(C)(O)Cn1c(CCO)nc2c(N)nc3cc(-c4ccccc4)ccc3c21 [Example 157]
[1]; Table 10
  minimal effective concentration: 0.37 µM
[2]; [5]
  Maximal Response (pg/mL) TNF: 67 pg/mL

## CCOCc1nc2c(N)nc3ccccc3c2n1CC(C)(C)CS(C)(=O)=O [Analog 124]
[1]; Table 11
  Maximal Response IFN: 1924 pg/mL
  Minimum Effective Concentration IFN: 0.12 µM
[2]; Table 11
  Minimum Effective Concentration TNF: 0.37 µM
[2]; [4]
  Maximal Response TNF: 9513 pg/mL

## CCOCc1nc2c(N)nc3cc(-c4ccccc4)ccc3c2n1CC(C)(C)O [Analog 24]
[1]; Table 10
  minimal effective concentration: 0.014 µM
[1]; [5]
  Maximal Response (pg/mL) IFN: 440 pg/mL
[2]; Table 10
  minimal effective concentration: 0.12 µM
[2]; [5]
  Maximal Response (pg/mL) TNF: 2238 pg/mL

## Cc1nc2c(N)nc3ccccc3c2n1CCCNC(=O)C(C)C [Analog 123]
[1]; Table 11
  Maximal Response IFN: 3011 pg/mL
  Minimum Effective Concentration IFN: 1.11 µM
[2]; Table 11
  Minimum Effective Concentration TNF: 10 µM
[2]; [4]
  Maximal Response TNF: 405 pg/mL

## CCOCc1nc2c(N)nc3ccccc3c2n1CCCN [Analog 85]
[1]; Table 11
  Maximal Response IFN: 1325 pg/mL
  Minimum Effective Concentration IFN: 0.12 µM
[2]; Table 11
  Minimum Effective Concentration TNF: 30 µM
[2]; [4]
  Maximal Response TNF: 411 pg/mL

## CCc1nc2c(N)nc3cc(-c4cncc(CO)c4)ccc3c2n1CC(C)(C)O [Analog 15]
[1]; Table 10
  minimal effective concentration: 0.014 µM
[1]; [5]
  Maximal Response (pg/mL) IFN: 2084 pg/mL
[2]; Table 10
  minimal effective concentration: 1.11 µM
[2]; [5]
  Maximal Response (pg/mL) TNF: 10087 pg/mL

## CCNC(=O)NCCn1c(CC)nc2c(N)nc3ccccc3c21 [Analog 103]
[1]; Table 11
  Maximal Response IFN: 1031 pg/mL
  Minimum Effective Concentration IFN: 3.33 µM
[2]; Table 11
  Minimum Effective Concentration TNF: 10 µM
[2]; [4]
  Maximal Response TNF: 3250 pg/mL

## CC(C)C(=O)NCCCn1c(CCO)nc2c(N)nc3ccccc3c21 [Example 141, N-{3-[4-Amino-2-(2-hydroxyethyl)-1H-imidazo[4,5-c]quinolin-1-yl]propyl}-2-methylpropionamide]
[1]; Table 11
  Maximal Response IFN: 14046 pg/mL
[2]; [4]
  Maximal Response TNF: 243 pg/mL

## CCOCc1nc2c(N)nc3ccccc3c2n1CCCNS(C)(=O)=O [Analog 61]
[1]; Table 11
  Maximal Response IFN: 1338 pg/mL
  Minimum Effective Concentration IFN: 0.37 µM
[2]; Table 11
  Minimum Effective Concentration TNF: 10 µM
[2]; [4]
  Maximal Response TNF: 463 pg/mL

## Nc1nc2cc(-c3ccccc3)ccc2c2c1nc(CCO)n2CCCN1CCCC1=O [Example 156]
[1]; Table 10
  minimal effective concentration: >30 µM
[1]; [5]
  Maximal Response (pg/mL) IFN: *
[2]; Table 10
  minimal effective concentration: >30 µM
[2]; [5]
  Maximal Response (pg/mL) TNF: *

## CC(C)NC(=O)NC(C)(C)Cn1c(CO)nc2c(N)nc3ccccc3c21 [Example 142, 1-[2-(4-Amino-2-hydroxymethyl-1H-imidazo[4,5-c]quinolin-1-yl)-1,1-dimethylethyl]-3-(1-methylethyl)urea]
[1]; Table 11
  Maximal Response IFN: 1554 pg/mL
[2]; [4]
  Maximal Response TNF: *

## COCCc1nc2c(N)nc3ccccc3c2n1CC(C)(C)CN [Analog 100]
[1]; Table 11
  Maximal Response IFN: 571 pg/mL
  Minimum Effective Concentration IFN: 0.014 µM
[2]; Table 11
  Minimum Effective Concentration TNF: 0.04 µM
[2]; [4]
  Maximal Response TNF: 17626 pg/mL

## Nc1nc2ccccc2c2c1nc(CCO)n2CCCCNC(=O)c1cnc2ccccc2c1 [Example 116]
[1]; Table 11
  Maximal Response IFN: 8361 pg/mL
  Minimum Effective Concentration IFN: 0.37 µM
[2]; Table 11
  Minimum Effective Concentration TNF: 30 µM
[2]; [4]
  Maximal Response TNF: 1112 pg/mL

## Cc1nc2c(N)nc3ccccc3c2n1CCOCCN(C)S(C)(=O)=O [Analog 77]
[1]; Table 11
  Maximal Response IFN: 1001 pg/mL
  Minimum Effective Concentration IFN: 0.12 µM
[2]; Table 11
  Minimum Effective Concentration TNF: 1.11 µM
[2]; [4]
  Maximal Response TNF: 3571 pg/mL

## CCCc1nc2c(N)nc3cc(-c4cccnc4)ccc3c2n1CC(C)(C)O [Analog 9, 1-(4-amino-2-propyl-7-pyridin-3-yl-1H-imidazo[4,5-c]quinolin-1-yl)-2-methylpropan-2-ol]
[1]; Table 9, background-subtracted, reference-adjusted
  Maximal Response (pg/mL) IFN: 597 pg/mL
[1]; [5]
  Maximal Response (pg/mL) IFN: 597 pg/mL
[2]; Table 9, * = below experimental background level of 40 pg/mL
  Maximal Response (pg/mL) TNF: 3951 pg/mL
[2]; [5]
  Maximal Response (pg/mL) TNF: 3951 pg/mL

## CCOCc1nc2c(N)nc3cc(-c4cccc(C(=O)N5CCOCC5)c4)ccc3c2n1CC1CCCCC1 [Analog 46]
[1]; Table 10
  minimal effective concentration: 0.014 µM
[1]; [5]
  Maximal Response (pg/mL) IFN: 815 pg/mL
[2]; Table 10
  minimal effective concentration: 0.37 µM
[2]; [5]
  Maximal Response (pg/mL) TNF: 1054 pg/mL

## COCCc1nc2c(N)nc3ccccc3c2n1CC(C)(C)CNC(=O)Nc1ccccc1 [Analog 92]
[1]; Table 11
  Maximal Response IFN: 570 pg/mL
  Minimum Effective Concentration IFN: 0.014 µM
[2]; Table 11
  Minimum Effective Concentration TNF: 0.04 µM
[2]; [4]
  Maximal Response TNF: 6449 pg/mL

## Cc1nc2c(N)nc3cccnc3c2n1CC(C)(C)O [Analog 126, 1-(4-amino-2-methyl-1H-imidazo[4,5-c][1,5]naphthyridin-1-yl)-2-methylpropan-2-ol]
[1]; Table 12
  Maximal Response IFN: 1952 pg/mL
[2]; [6]
  Maximal Response TNF: 6519 pg/mL

## CCOCc1nc2c(N)nc3cc(-c4cccnc4)ccc3c2n1CC(C)C [Analog 26]
[1]; Table 10
  minimal effective concentration: 0.014 µM
[1]; [5]
  Maximal Response (pg/mL) IFN: 591 pg/mL
[2]; Table 10
  minimal effective concentration: 0.12 µM
[2]; [5]
  Maximal Response (pg/mL) TNF: 647 pg/mL

## COCCc1nc2c(N)nc3ccccc3c2n1CCCNC(=O)N1CCOCC1 [Analog 89]
[1]; Table 11
  Maximal Response IFN: 5915 pg/mL
  Minimum Effective Concentration IFN: 0.014 µM
[2]; Table 11
  Minimum Effective Concentration TNF: 0.014 µM
[2]; [4]
  Maximal Response TNF: 6169 pg/mL

## COCCc1nc2c(N)nc3cc(-c4cccnc4)ccc3c2n1CC(C)(C)O [Analog 12]
[1]; Table 10
  minimal effective concentration: 0.014 µM
[1]; [5]
  Maximal Response (pg/mL) IFN: 1065 pg/mL
[2]; Table 10
  minimal effective concentration: 0.014 µM
[2]; [5]
  Maximal Response (pg/mL) TNF: 8386 pg/mL

## CC(C)(O)Cn1c(CO)nc2c(N)nc3cc(-c4cccc(O)c4)ccc3c21 [Example 168]
[1]; Table 10
  minimal effective concentration: 0.37 µM
[2]; Table 10
  minimal effective concentration: 10 µM

## Cc1ccc(S(=O)(=O)NCCCn2c(CCO)nc3c(N)nc4ccccc4c32)cc1 [Example 1, N-{3-[4-Amino-2-(2-hydroxyethyl)-1H-imidazo[4,5-c]quinolin-1-yl]propyl}-4-methylbenzenesulfonamide]
[1]; Table 11
  Maximal Response IFN: 1072 pg/mL
[2]; [4]
  Maximal Response TNF: 143 pg/mL

## CCOCc1nc2c(N)nc3cc(-c4cncc(CO)c4)ccc3c2n1CC(C)(C)O [Analog 14]
[1]; Table 10
  minimal effective concentration: 0.014 µM
[1]; [5]
  Maximal Response (pg/mL) IFN: 6308 pg/mL
[2]; Table 10
  minimal effective concentration: 0.12 µM
[2]; [5]
  Maximal Response (pg/mL) TNF: 18284 pg/mL

## CS(=O)(=O)NCCCn1c(CCO)nc2c(N)nc3ccccc3c21 [Example 122]
[1]; Table 11
  Maximal Response IFN: 9651 pg/mL
  Minimum Effective Concentration IFN: 3.33 µM
[2]; Table 11
  Minimum Effective Concentration TNF: >30 µM
[2]; [4]
  Maximal Response TNF: *

## CCOCc1nc2c(N)nc3cc(-c4cccc(O)c4)ccc3c2n1CC(C)(C)O [Analog 43]
[1]; Table 10
  minimal effective concentration: 0.04 µM
[1]; [5]
  Maximal Response (pg/mL) IFN: 740 pg/mL
[2]; Table 10
  minimal effective concentration: 0.04 µM
[2]; [5]
  Maximal Response (pg/mL) TNF: 3955 pg/mL

## CC(C)(O)Cn1c(CCO)nc2c(N)nc3cccnc3c21 [Example 149, 1-[4-Amino-2-(2-hydroxyethyl)-1H-imidazo[4,5-c][1,5]naphthyridin-1-yl]-2-methylpropan-2-ol]
[1]; [7]
  Maximal Response (pg/mL) IFN: 1849 pg/mL
[1]; Table 12
  Maximal Response IFN: 2063 pg/mL
[2]; [7]
  Maximal Response (pg/mL) TNF: 342 pg/mL
[2]; [6]
  Maximal Response TNF: 331 pg/mL

## Nc1nc2cc(-c3ccncc3)ccc2c2c1nc(CCO)n2CCCN1CCCC1=O [Example 161]
[1]; Table 10
  minimal effective concentration: >30 µM
[1]; [5]
  Maximal Response (pg/mL) IFN: *
[2]; Table 10
  minimal effective concentration: >30 µM
[2]; [5]
  Maximal Response (pg/mL) TNF: *

## CCc1nc2c(N)nc3ccccc3c2n1CC(C)(C)CN [Analog 99]
[1]; Table 11
  Maximal Response IFN: 405 pg/mL
  Minimum Effective Concentration IFN: 0.04 µM
[2]; Table 11
  Minimum Effective Concentration TNF: 0.37 µM
[2]; [4]
  Maximal Response TNF: 13846 pg/mL

## CC(C)CC(=O)NCCn1c(CCO)nc2c(N)nc3ccccc3c21 [Example 138]
[1]; Table 11
  Maximal Response IFN: 36 pg/mL
  Minimum Effective Concentration IFN: 3.33 µM
[2]; Table 11
  Minimum Effective Concentration TNF: >30 µM
[2]; [4]
  Maximal Response TNF: *

## COCCc1nc2c(N)nc3ccccc3c2n1CCCCCCCCNC(=O)Nc1ccccc1 [Analog 117]
[1]; Table 11
  Maximal Response IFN: 1257 pg/mL
  Minimum Effective Concentration IFN: 0.014 µM
[2]; Table 11
  Minimum Effective Concentration TNF: 0.12 µM
[2]; [4]
  Maximal Response TNF: 1372 pg/mL
